Measurements as given in ChEMBL document CHEMBL1833800, “Synthesis, preliminary biological evaluation and molecular modeling of some new heterocyclic inhibitors of TACE” (Eur J Med Chem, 2011).

Target: Disintegrin and metalloproteinase domain-containing protein 17 (Homo sapiens, UniProt P78536)
Assay: Inhibition of TACE in human whole blood assessed as reduction of LPS-induced TNFalpha production pretreated 15 mins before LPS challenge measured 5 hrs post LPS challenge

Disintegrin and metalloproteinase domain-containing protein 17, sequence (P78536 whole entry, the tested form may be a part): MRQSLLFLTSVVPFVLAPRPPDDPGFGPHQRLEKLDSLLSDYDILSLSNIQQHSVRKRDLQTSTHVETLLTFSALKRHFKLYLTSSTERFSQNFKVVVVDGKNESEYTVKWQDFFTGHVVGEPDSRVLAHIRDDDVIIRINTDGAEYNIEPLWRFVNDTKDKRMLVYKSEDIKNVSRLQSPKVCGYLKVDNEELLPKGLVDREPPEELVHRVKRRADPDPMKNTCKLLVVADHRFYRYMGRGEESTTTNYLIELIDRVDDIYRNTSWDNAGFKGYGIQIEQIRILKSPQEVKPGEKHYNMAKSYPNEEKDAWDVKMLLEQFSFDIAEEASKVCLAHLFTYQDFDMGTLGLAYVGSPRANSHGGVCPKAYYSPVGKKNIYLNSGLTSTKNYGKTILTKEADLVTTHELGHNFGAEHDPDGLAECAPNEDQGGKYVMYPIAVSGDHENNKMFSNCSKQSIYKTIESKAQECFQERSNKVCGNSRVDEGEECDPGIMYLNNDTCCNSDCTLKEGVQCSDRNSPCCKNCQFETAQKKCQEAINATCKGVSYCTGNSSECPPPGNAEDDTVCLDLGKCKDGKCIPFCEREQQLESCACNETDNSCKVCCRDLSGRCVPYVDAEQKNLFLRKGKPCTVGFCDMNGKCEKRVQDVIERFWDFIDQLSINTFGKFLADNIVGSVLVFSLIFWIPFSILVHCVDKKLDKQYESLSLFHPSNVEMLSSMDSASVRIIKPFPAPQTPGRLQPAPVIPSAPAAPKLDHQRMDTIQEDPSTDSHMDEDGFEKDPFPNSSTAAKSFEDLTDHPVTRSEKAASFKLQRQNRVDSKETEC

| Structure (SMILES) | IC50 [nM] |
| --- | --- |
| Cc1nc2ccccc2n1Cc1ccc(C(=O)N[C@@H]2CCOC[C@@H]2C(=O)NO)cn1 | 80 |
| O=C(N[C@@H]1CCOC[C@@H]1C(=O)NO)c1ccc(Cn2c(C(F)(F)F)nc3ccccc32)nc1 | 160 |
| Cc1nc2ccccc2n1Cc1ccc(C(=O)N[C@@H]2CCCC[C@@H]2C(=O)NO)cn1 | 126 |
| O=C(N[C@@H]1CCCC[C@@H]1C(=O)NO)c1ccc(Cn2c(C(F)(F)F)nc3ccccc32)nc1 | 280 |
| Cc1nc2ccccc2n1Cc1ccc(C(=O)N[C@@H]2CCC[C@@H]2C(=O)NO)cn1 (single isomer, unassigned) | 70 |
| O=C(N[C@@H]1CCC[C@@H]1C(=O)NO)c1ccc(Cn2c(C(F)(F)F)nc3ccccc32)nc1 (single isomer, unassigned) | 74 |
